Laboratory results reported in the NIST ThermoML archive (doi:10.1016/j.jct.2013.01.026).
Numbers after ± are expanded uncertainties.

Experiments:
[1] = refractive index (other wavelength) (dimensionless); wn = mass fraction of the nth substance listed; conditions: 298.15 K, 101.3 kPa, Liquid, Standard Abbe refractometry
[2] = refractive index (other wavelength) (dimensionless); conditions: 298.15 K, 101.3 kPa, Liquid, Standard Abbe refractometry

c1ccc2c(c1)CCCC2 [1,2,3,4-tetrahydronaphthalene] + CCCCCCCCCCCC
refractive index, [1]
Conditions | w2 = 0 | w2 = 0.1 | w2 = 0.1999 | w2 = 0.2999 | w2 = 0.4001 | w2 = 0.4999 | w2 = 0.6002 | w2 = 0.6999 | w2 = 0.8 | w2 = 0.9001
Wavelength=670 nm | 1.53479 ± 0.00052 | 1.51956 ± 0.00051 | 1.505 ± 0.0005 | 1.49244 ± 0.00048 | 1.47987 ± 0.00047 | 1.46832 ± 0.00045 | 1.45728 ± 0.00044 | 1.44674 ± 0.00043 | 1.43694 ± 0.00042 | 1.42736 ± 0.0004
Wavelength=925 nm | 1.52642 ± 0.00052 | 1.51181 ± 0.00051 | 1.49762 ± 0.00049 | 1.48558 ± 0.00048 | 1.47343 ± 0.00047 | 1.4622 ± 0.00045 | 1.45157 ± 0.00044 | 1.44149 ± 0.00043 | 1.43179 ± 0.00042 | 1.42273 ± 0.0004

CC(C)Cc1ccccc1 [(2-methylpropyl)benzene] + c1ccc2c(c1)CCCC2
refractive index, [1]
Conditions | w2 = 0 | w2 = 0.1003 | w2 = 0.2 | w2 = 0.2999 | w2 = 0.3977 | w2 = 0.4996 | w2 = 0.6002 | w2 = 0.699 | w2 = 0.8001 | w2 = 0.8997
Wavelength=670 nm | 1.48071 ± 0.00035 | 1.48573 ± 0.00036 | 1.49084 ± 0.00037 | 1.49587 ± 0.00039 | 1.50109 ± 0.0004 | 1.50663 ± 0.00042 | 1.51197 ± 0.00044 | 1.51743 ± 0.00046 | 1.52313 ± 0.00048 | 1.52865 ± 0.0005
Wavelength=925 nm | 1.47345 ± 0.00035 | 1.47803 ± 0.00036 | 1.48337 ± 0.00038 | 1.48805 ± 0.00039 | 1.49344 ± 0.0004 | 1.49865 ± 0.00042 | 1.50413 ± 0.00044 | 1.5092 ± 0.00046 | 1.51499 ± 0.00048 | 1.52005 ± 0.0005

CCCCCCCCCCCC [dodecane] + CC(C)Cc1ccccc1
[1], w1 = 1
Conditions | refractive index
Wavelength=670 nm | 1.41845 ± 0.00039
Wavelength=925 nm | 1.41407 ± 0.00039

c1ccc2c(c1)CCCC2 [1,2,3,4-tetrahydronaphthalene]
[2]
Conditions | refractive index
Wavelength=670 nm | 1.53479 ± 0.00052
Wavelength=925 nm | 1.52642 ± 0.00052

CC(C)Cc1ccccc1 [(2-methylpropyl)benzene]
[2]
Conditions | refractive index
Wavelength=670 nm | 1.48071 ± 0.00035
Wavelength=925 nm | 1.47345 ± 0.00035

CCCCCCCCCCCC [dodecane]
[2]
Conditions | refractive index
Wavelength=670 nm | 1.41845 ± 0.00039
Wavelength=925 nm | 1.41407 ± 0.00039

CC(C)Cc1ccccc1 [(2-methylpropyl)benzene] + CCCCCCCCCCCC
refractive index, [1]
Conditions | w2 = 0.0998 | w2 = 0.2001 | w2 = 0.3002 | w2 = 0.4 | w2 = 0.4999 | w2 = 0.6 | w2 = 0.7001 | w2 = 0.8002 | w2 = 0.9001
Wavelength=670 nm | 1.47308 ± 0.00036 | 1.46588 ± 0.00036 | 1.45898 ± 0.00036 | 1.45233 ± 0.00037 | 1.44607 ± 0.00037 | 1.44006 ± 0.00037 | 1.43407 ± 0.00038 | 1.42875 ± 0.00038 | 1.42337 ± 0.00039
Wavelength=925 nm | 1.46604 ± 0.00036 | 1.45912 ± 0.00036 | 1.45266 ± 0.00036 | 1.44638 ± 0.00037 | 1.44043 ± 0.00037 | 1.43444 ± 0.00037 | 1.42884 ± 0.00038 | 1.42387 ± 0.00038 | 1.4187 ± 0.00039
